Assay results published in patent US12612372B2, “Oxopyridazinyl-phenyl-carbonohydrazonoyl dicyanide compound and use thereof” (KOREA INSTITUTE OF SCIENCE AND TECHNOLOGY, priority 2020, dated 2026).

Tests used:
CYP1A2 = target: T1, CYP1A2 (Homo sapiens, UniProt P05177); assay: CYP coenzyme activity in human liver microsomes, CYP1A2; format: in vitro ADME; settings: 10 μM compound, human liver microsomes 0.25 mg/mL, substrate phenacetin, 15 minutes
T1 construct: human liver microsomes (0.25 mg/mL); from tissue; host or cells: human liver microsomes
T1 sequence (P05177 1-516): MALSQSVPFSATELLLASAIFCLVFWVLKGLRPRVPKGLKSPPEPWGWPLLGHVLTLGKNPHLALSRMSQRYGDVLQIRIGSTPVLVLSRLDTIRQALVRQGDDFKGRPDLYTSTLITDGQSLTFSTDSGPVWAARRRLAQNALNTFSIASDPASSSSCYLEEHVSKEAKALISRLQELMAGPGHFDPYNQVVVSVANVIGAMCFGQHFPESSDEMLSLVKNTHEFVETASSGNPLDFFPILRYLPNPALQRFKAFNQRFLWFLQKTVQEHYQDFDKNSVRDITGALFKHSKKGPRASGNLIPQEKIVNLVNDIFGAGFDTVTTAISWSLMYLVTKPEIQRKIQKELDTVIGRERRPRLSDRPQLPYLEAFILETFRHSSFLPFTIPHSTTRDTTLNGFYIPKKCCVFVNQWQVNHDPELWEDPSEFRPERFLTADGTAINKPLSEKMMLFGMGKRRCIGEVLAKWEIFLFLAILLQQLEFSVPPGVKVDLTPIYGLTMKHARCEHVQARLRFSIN
Experimental: (§1) Specifically, human liver microsomes (0.25 mg/mL), a 0.1 M phosphate buffer solution (pH 7.4), a substrate drug cocktail of five types of drug metabolism enzymes (50 μM phenacetin, 10 μM diclofenac, 100 μM S-mephenytoin, 5 μM dextromethorphan, and 2.5 μM midazolam), and the compound at a concentration of 0 μM or 10 μM were mixed and pre-cultured at 37° C. for 5 minutes, and then further cultured at 37° C. for 15 minutes together with an NADPH generation system solution added thereto. Thereafter, the reaction was terminated by adding an acetonitrile solution containing an internal standard material (terfenadine) and centrifuged for 5 minutes (14,000 rpm, 4° C.), and then a supernatant was injected into an LC-MS/MS system for simultaneous analysis of metabolites of the substrate drugs to thereby evaluate the inhibitory effects on drug metabolism.
(§2) Metabolites of each CYP coenzyme indicator drug generated through the reaction were analyzed using the Shimadzu Nexera XR system and TSQ Vantage (Thermo). In an HPLC column, Kinetex C18 (2.1 mm×100 mm, 2.6 μm particle size; Phenomenex, USA) was used, and mobile phases were (A) distilled water containing 0.1% formic acid and (B) acetonitrile containing 0.1% formic acid, and a gradient program shown in Table 3 was applied thereto.
(§3) The generated metabolites were quantified using a multiple reaction monitoring (MRM) quantification mode, and Xcalibur (version 1.6.1) was used for data analysis. In order to express the inhibitory effects of the novel compounds prepared according to the examples of the present invention on CYP coenzyme activity, CYP coenzyme activities (%) with respect to the control group not treated with any compound are shown in Table 4 below.

CYP2C9 = target: T2, CYP2C9 (Homo sapiens, UniProt P11712); assay: CYP coenzyme activity in human liver microsomes, CYP2C9; format: in vitro ADME; settings: 10 μM compound, human liver microsomes 0.25 mg/mL, substrate diclofenac, 15 minutes
T2 construct: human liver microsomes (0.25 mg/mL); from tissue; host or cells: human liver microsomes
Experimental: as §1, §2, §3

[1] = Liver microsome stability, mouse; format: in vitro ADME; settings: mouse liver microsomes 0.25 mg/mL, 1 μM compound, 37° C., 30 minutes, NADPH
Experimental: (§4) The stability of liver microsomes due to the compounds prepared according to Examples 1 to 14 was confirmed. Specifically, four types of liver microsomes (human, dog, rat, and mouse, each 0.25 mg/mL), a 0.1 M phosphate buffer solution (pH 7.4), and each of the compounds at a concentration of 1 μM were mixed and pre-cultured at 37° C. for 5 minutes and further cultured at 37° C. for 30 minutes together with an NADPH generation system solution added thereto. Thereafter, the reaction was terminated by adding an acetonitrile solution containing an internal standard material (chlorpropamide) and centrifuged for 5 minutes (14,000 rpm, 4° C.), and then a supernatant was injected into an LC-MS/MS system for analysis of substrate drugs to thereby evaluate metabolic stability due to 8 types of compounds.
(§5) The amount of the substrate remaining after the reaction was analyzed using the Shimadzu Nexera XR system and TSQ Vantage (Thermo). In an HPLC column, Kinetex XB-C18 (2.1 mm×100 mm, particle size of 2.6 μm; Phenomenex, USA) was used, and mobile phases were (A) distilled water containing 0.1% formic acid and (B) acetonitrile containing 0.1% formic acid. Analyst software (version 1.6.3) and Xcalibur (version 1.6.1) were used for data analysis.

CYP2C19 = target: T3, CYP2C19 (Homo sapiens, UniProt P33261); assay: CYP coenzyme activity in human liver microsomes, CYP2C19; format: in vitro ADME; settings: 10 μM compound, human liver microsomes 0.25 mg/mL, substrate S-mephenytoin, 15 minutes
T3 construct: human liver microsomes (0.25 mg/mL); from tissue; host or cells: human liver microsomes
Experimental: as §1, §2, §3

[2] = Liver microsome stability, rat; format: in vitro ADME; settings: rat liver microsomes 0.25 mg/mL, 1 μM compound, 37° C., 30 minutes, NADPH
Experimental: as §4, §5

CYP3A4 = target: T4, CYP3A4 (Homo sapiens, UniProt P08684); assay: CYP coenzyme activity in human liver microsomes, CYP3A4; format: in vitro ADME; settings: 10 μM compound, human liver microsomes 0.25 mg/mL, substrate midazolam, 15 minutes
T4 construct: human liver microsomes (0.25 mg/mL); from tissue; host or cells: human liver microsomes
Experimental: as §1, §2, §3

Tau-BiFC cells = assay: Cell viability (stained nuclei count) in tau-BiFC cells; settings: 10 μM compound; stained nuclei relative to Forskolin-only group (100%), 48 hours
Experimental: (§6) In order to select novel tau protein aggregation—inhibiting substances, tau-BiFC cell model, in which formation of tau oligomers in living cells is easily observed, was used. Tau-BiFC cells were aliquoted into a 384-well plate. […] After 48 hours, nuclei in the cells were stained using Hoechst (at a treatment concentration of 2 μg/mL), and BiFC fluorescence intensity was automatically measured using Operetta (PerkinElmer) to count stained nuclei in each well out of the entire well plate. […] Furthermore, the degree of cytotoxicity induced by the newly synthesized compound was also measured based on the 100% cell viability of the group treated only with Forskolin as a reference, and the cytotoxicity value of each compound was calculated using the equation “(number of stained nuclei in group treated with compound/number of stained nuclei in group treated with Forskolin)×100”.
(§7) After 48 hours, tau protein aggregation reaction and degrees of cytotoxicity were analyzed by observing images of the cells. IC50 and toxicity of the compounds were analyzed by nonlinear regression analysis of Prism software (Graph Pad).

[3] = Liver microsome stability, dog; format: in vitro ADME; settings: dog liver microsomes 0.25 mg/mL, 1 μM compound, 37° C., 30 minutes, NADPH
Experimental: as §4, §5

tau protein = target: T5, tau protein (Homo sapiens, UniProt P10636); assay: Tau-BiFC cell model, Forskolin-induced tau protein aggregation; format: cell-based; settings: for Tau BiFC in cells Response (%, @10 μM): 10 μM compound, BiFC fluorescence relative to Forskolin-only group (100% tau protein-aggregated state), 48 hours
T5 construct: fused on or other part: Split Venus fragments VN173 and VC155, each fused to one copy of tau as BiFC reporter halves
Experimental: as §6, §7

[4] = Liver microsome stability, human; format: in vitro ADME; settings: human liver microsomes 0.25 mg/mL, 1 μM compound, 37° C., 30 minutes, NADPH
Experimental: as §4, §5

CYP2D6 = target: T6, CYP2D6 (Homo sapiens, UniProt P10635); assay: CYP coenzyme activity in human liver microsomes, CYP2D6; format: in vitro ADME; settings: 10 μM compound, human liver microsomes 0.25 mg/mL, substrate dextromethorphan, 15 minutes
T6 construct: human liver microsomes (0.25 mg/mL); from tissue; host or cells: human liver microsomes
Experimental: as §1, §2, §3

T4 sequence (P08684 whole entry): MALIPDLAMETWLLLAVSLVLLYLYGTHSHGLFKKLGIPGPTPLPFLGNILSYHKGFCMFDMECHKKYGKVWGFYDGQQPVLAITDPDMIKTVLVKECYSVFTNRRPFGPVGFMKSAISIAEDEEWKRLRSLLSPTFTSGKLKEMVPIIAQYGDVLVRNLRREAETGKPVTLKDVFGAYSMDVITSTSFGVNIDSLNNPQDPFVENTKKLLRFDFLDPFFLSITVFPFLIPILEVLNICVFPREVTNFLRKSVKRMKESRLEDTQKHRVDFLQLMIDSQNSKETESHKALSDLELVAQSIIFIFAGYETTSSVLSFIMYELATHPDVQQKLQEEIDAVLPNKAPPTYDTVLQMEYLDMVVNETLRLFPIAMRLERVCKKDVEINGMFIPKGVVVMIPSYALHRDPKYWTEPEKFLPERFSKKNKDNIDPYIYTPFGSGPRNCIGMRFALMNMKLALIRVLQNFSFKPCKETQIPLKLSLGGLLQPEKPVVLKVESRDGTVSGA
T5 sequence (P10636 2-441 isoform P10636-8 limits assumed): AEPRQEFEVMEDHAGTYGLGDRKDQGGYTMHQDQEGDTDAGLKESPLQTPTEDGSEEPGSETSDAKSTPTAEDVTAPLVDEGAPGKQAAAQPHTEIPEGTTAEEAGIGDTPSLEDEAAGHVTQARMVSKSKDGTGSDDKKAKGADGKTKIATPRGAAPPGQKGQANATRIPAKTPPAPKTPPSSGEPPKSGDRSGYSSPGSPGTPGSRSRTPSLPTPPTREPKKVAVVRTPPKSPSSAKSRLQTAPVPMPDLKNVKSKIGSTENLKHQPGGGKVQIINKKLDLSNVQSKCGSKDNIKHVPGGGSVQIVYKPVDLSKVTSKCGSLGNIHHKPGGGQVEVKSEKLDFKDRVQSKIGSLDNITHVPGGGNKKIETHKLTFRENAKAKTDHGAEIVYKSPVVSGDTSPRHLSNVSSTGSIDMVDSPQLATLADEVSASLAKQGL
T6 sequence (P10635 whole entry): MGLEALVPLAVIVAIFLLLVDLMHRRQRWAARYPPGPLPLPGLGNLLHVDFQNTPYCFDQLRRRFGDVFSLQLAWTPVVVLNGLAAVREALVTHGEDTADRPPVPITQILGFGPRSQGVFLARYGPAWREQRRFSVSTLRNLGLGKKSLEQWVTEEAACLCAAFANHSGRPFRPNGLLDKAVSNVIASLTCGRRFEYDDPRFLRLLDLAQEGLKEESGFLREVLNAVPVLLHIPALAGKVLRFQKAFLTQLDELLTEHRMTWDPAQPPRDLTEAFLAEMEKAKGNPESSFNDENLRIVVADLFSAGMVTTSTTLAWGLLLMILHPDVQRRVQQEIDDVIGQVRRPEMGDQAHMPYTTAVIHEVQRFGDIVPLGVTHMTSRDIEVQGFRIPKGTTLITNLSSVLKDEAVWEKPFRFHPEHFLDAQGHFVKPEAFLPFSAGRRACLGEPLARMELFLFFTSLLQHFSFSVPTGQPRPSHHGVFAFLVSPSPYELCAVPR
T3 sequence (P33261 whole entry): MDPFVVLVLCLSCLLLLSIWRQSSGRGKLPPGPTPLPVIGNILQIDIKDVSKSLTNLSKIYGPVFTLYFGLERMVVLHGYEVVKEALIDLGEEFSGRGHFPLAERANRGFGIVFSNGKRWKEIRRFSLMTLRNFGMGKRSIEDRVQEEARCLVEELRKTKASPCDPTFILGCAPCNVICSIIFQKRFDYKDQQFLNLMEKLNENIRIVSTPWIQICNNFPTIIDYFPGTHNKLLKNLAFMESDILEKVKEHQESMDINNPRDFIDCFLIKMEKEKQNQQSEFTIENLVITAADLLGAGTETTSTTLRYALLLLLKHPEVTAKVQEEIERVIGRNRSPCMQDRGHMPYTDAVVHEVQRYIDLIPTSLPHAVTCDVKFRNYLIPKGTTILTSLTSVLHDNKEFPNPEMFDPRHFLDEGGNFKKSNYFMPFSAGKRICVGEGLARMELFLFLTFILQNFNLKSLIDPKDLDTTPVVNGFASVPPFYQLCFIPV
T2 sequence (P11712 whole entry): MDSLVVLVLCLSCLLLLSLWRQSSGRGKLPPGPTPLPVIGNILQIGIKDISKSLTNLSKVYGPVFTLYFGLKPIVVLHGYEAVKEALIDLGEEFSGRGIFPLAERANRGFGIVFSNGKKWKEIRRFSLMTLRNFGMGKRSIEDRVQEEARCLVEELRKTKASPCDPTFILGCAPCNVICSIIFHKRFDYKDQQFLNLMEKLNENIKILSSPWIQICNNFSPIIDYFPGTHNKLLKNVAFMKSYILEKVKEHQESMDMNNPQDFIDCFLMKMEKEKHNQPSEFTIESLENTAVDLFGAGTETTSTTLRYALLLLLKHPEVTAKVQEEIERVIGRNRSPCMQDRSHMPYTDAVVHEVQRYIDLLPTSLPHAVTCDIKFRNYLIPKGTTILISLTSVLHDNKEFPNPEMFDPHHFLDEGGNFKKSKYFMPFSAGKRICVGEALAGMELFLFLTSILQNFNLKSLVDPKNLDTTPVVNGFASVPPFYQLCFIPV

CC1CC(=O)N(CC(F)(F)F)N=C1c1ccc(NN=C(C#N)C#N)cc1 (stereo not drawn) [Example 4, (4-(4-methyl-6-oxo-1-(2,2,2-trifluoroethyl)-1,4,5,6-tetrahydropyridazin-3-yl)phenyl)carbonohydrazonoyl dicyanide]
CYP1A2 activity (%) with respect to control group not treated with any compound (CYP1A2): 74.8% | CYP2C9 activity (%) with respect to control group not treated with any compound (CYP2C9): 55.6% | Mouse (%) amount remaining after the reaction [1]: 89% | CYP2C19 activity (%) with respect to control group not treated with any compound (CYP2C19): 45.5% | Rat (%) amount remaining after the reaction [2]: 96.8% | CYP3A4 activity (%) with respect to control group not treated with any compound (CYP3A4): 74.2% | Cell viability (%, @10 μM) (Tau-BiFC cells): 98.7% | Dog (%) amount remaining after the reaction [3]: 95.6% | IC50 (tau protein): 450 nM | Tau BiFC in cells Response (%, @10 μM) (tau protein): 0% | Human (%) amount remaining after the reaction [4]: 98.2% | CYP2D6 activity (%) with respect to control group not treated with any compound (CYP2D6): 62.1%

COCCN1N=C(c2ccc(NN=C(C#N)C#N)cc2)C(C)CC1=O (stereo not drawn) [Example 5, (4-(1-(2-methoxyethyl)-4-methyl-6-oxo-1,4,5,6-tetrahydropyridazin-3-yl)phenyl)carbonohydrazonoyl dicyanide]
CYP1A2 activity (%) with respect to control group not treated with any compound (CYP1A2): 70% | CYP2C9 activity (%) with respect to control group not treated with any compound (CYP2C9): 71.5% | Mouse (%) amount remaining after the reaction [1]: 94.9% | CYP2C19 activity (%) with respect to control group not treated with any compound (CYP2C19): 63.4% | Rat (%) amount remaining after the reaction [2]: 90.9% | CYP3A4 activity (%) with respect to control group not treated with any compound (CYP3A4): 74.2% | Cell viability (%, @10 μM) (Tau-BiFC cells): 95.7% | Dog (%) amount remaining after the reaction [3]: >100% | IC50 (tau protein): 90 nM | Tau BiFC in cells Response (%, @10 μM) (tau protein): 15.6% | Human (%) amount remaining after the reaction [4]: 30.9% | CYP2D6 activity (%) with respect to control group not treated with any compound (CYP2D6): 70.4%

CC1CC(=O)N(C2CC2)N=C1c1ccc(NN=C(C#N)C#N)cc1 (stereo not drawn) [Example 6, (4-(1-cyclopropyl-4-methyl-6-oxo-1,4,5,6-tetrahydropyridazin-3-yl)phenyl)carbonohydrazonoyl dicyanide]
CYP1A2 activity (%) with respect to control group not treated with any compound (CYP1A2): 78.6% | CYP2C9 activity (%) with respect to control group not treated with any compound (CYP2C9): 74.2% | Mouse (%) amount remaining after the reaction [1]: 92.7% | CYP2C19 activity (%) with respect to control group not treated with any compound (CYP2C19): 74.2% | Rat (%) amount remaining after the reaction [2]: 95.8% | CYP3A4 activity (%) with respect to control group not treated with any compound (CYP3A4): 79.5% | Cell viability (%, @10 μM) (Tau-BiFC cells): 62.9% | Dog (%) amount remaining after the reaction [3]: 99.5% | IC50 (tau protein): 70 nM | Tau BiFC in cells Response (%, @10 μM) (tau protein): 0% | Human (%) amount remaining after the reaction [4]: 85% | CYP2D6 activity (%) with respect to control group not treated with any compound (CYP2D6): 72.6%
